In US12258329B2 (Merck Sharp & Dohme LLC, priority 2018, dated 2025):

What follows are compounds tested on infected PBMCs (VSV-G pseudotyped HIV virus VSV-G/pNLG1-P2A-ΔEnv) (assay: cells). Conditions: Homo sapiens, PBMC, read-out: TACK EC50.
Assay type: cell-based, human

| Compound | EC50 [nM] |
| --- | --- |
| Cc1nc(C)c(Cn2cnc(C(C)F)c(Oc3c(C)cc(C#N)cc3Cl)c2=O)c(=O)[nH]1 (single isomer, unassigned) [Example 18, (S) or (R)-3-chloro-4-((1-((2,4-dimethyl-6-oxo-1,6-dihydropyrimidin-5-y1)methyl)-4-(1-fluoroethyl)-6-oxo-1,6-dihydropyrimidin-5-yl)oxy)-5-methylbenzonitrile] | 129 |
| Cc1nc(C)c(Cn2cnc(C(C)F)c(Oc3cc(C(F)F)cc(C#N)c3C)c2=O)c(=O)[nH]1 (single isomer, unassigned) [Example 28] | 208 |
| Cc1nc(C)c(Cn2cnc(C(C)F)c(Oc3cc(Cl)cc(C#N)c3F)c2=O)c(=O)[nH]1 (single isomer, unassigned) [Example 30] | 206 |
| Cc1nc(C)c(Cn2cnc(C(C)F)c(Oc3cc(C(F)F)cc(C#N)c3F)c2=O)c(=O)[nH]1 (single isomer, unassigned) [Example 32, (S) or (R)-5-(difluoromethyl)-3-((1-((2,4-dimethyl-6-oxo-1,6-dihydropyrimidin-5-yl)methyl)-4-(1-fluoroethyl)-6-oxo-1,6-dihydropyrimidin-5-yl)oxy)-2-fluorobenzonitrile] | 171 |
| Cc1nc(C)c(Cn2cnc(C(C)F)c(Oc3cc(Cl)cc(C#N)c3Cl)c2=O)c(=O)[nH]1 (single isomer, unassigned) [Example 34, (S) or (R)-2,5-dichloro-3-((1-((2,4-dimethyl-6-oxo-1,6-dihydropyrimidin-5-yl)methyl)-4-(1-fluoroethyl)-6-oxo-1,6-dihydropyrimidin-5-yl)oxy)benzonitrile] | 474 |
| Cc1nc(C)c(Cn2cnc(C(C)F)c(Oc3c(C)cc(C#N)cc3C)c2=O)c(=O)[nH]1 (single isomer, unassigned) [Example 43, (S) or (R)-4-((1-((2,4-dimethyl-6-oxo-1,6-dihydropyrimidin-5-yl)methyl)-4-(1-fluoroethyl)-6-oxo-1,6-dihydropyrimidin-5-yl)oxy)-3,5-dimethylbenzonitrile] | 438 |
| Cc1nc(C(C)O)[nH]c(=O)c1Cn1cnc(C(F)(F)C(F)F)c(Oc2cc(Cl)cc(C#N)c2F)c1=O (single isomer, unassigned) [Example 44] | 333 |
| Cc1nc(C(C)O)[nH]c(=O)c1Cn1cnc(C(F)(F)C(F)F)c(Oc2cc(C(F)F)cc(C#N)c2C)c1=O (single isomer, unassigned) [Example 53, 5-(difluoromethyl)-3-((1-((2-(1-hydroxyethyl)-4-methyl-6-oxo-1,6-dihydropyrimidin-5-yl)methyl)-6-oxo-4-(1,1,2,2-tetrafluoroethyl)-1,6-dihydropyrimidin-5-yl)oxy)-2-methylbenzonitrile] | 392 |

Same assay, conditions: read-out: TACK EC50

| Compound | EC50 [nM] |
| --- | --- |
| 3-((4-(1, 1-difluoroethyl)-1-((2,4- dimethyl-6-oxo-1,6-dihydropyrimidin- 5-y1)methyl)-6-oxo-1,6- dihydropyrimidin-5-yl)oxy)-2,4,5- trifluorobenzonitrile [Example 14] | 343 |
| Cc1nc(C)c(Cn2cnc(C(C)F)c(Oc3cc(C(F)F)cc(C#N)c3C)c2=O)c(=O)[nH]1 (single isomer, unassigned) [Example 29] | 312 |
| Cc1nc(C)c(Cn2cnc(C(C)F)c(Oc3cc(Cl)cc(C#N)c3F)c2=O)c(=O)[nH]1 (single isomer, unassigned) [Example 31] | 397 |
| Cc1nc(C)c(Cn2cnc(C(C)F)c(Oc3cc(C(F)F)cc(C#N)c3F)c2=O)c(=O)[nH]1 (single isomer, unassigned) [Example 33, (R) or (S)-5-(difluoromethyl)-3-((1-((2,4-dimethyl-6-oxo-1,6-dihydropyrimidin-5-yl)methyl)-4-(1-fluoroethyl)-6-oxo-1,6-dihydropyrimidin-5-yl)oxy)-2-fluorobenzonitrile] | 208 |
| COc1c(C#N)cc(C(F)F)cc1Oc1c(C(C)F)ncn(Cc2c(C)nc(C)[nH]c2=O)c1=O (single isomer, unassigned) [Example 35] | 351 |
| COc1c(C#N)cc(C(F)F)cc1Oc1c(C(C)F)ncn(Cc2c(C)nc(C)[nH]c2=O)c1=O (single isomer, unassigned) [Example 36] | 72.3 |
